Tests used:
[1] = target: binding between Nrf2 and Keap1 (Homo sapiens (Human), UniProt Q14145); experiment: FP assay (in vitro): inhibition of Nrf2-Keap1 binding by fluorescence polarization; details: GST-fused human Keap1 (325-642) 20 nM, FITC-labeled Nrf2 peptide 10 nM, 2 hr at room temperature
[2] = test system: NQO1 activity in Hepa1c1c7 cells; experiment: NAD(P)H: quinone oxidoreductase-1 (NQO1) enzyme induction assay (in vitro); assay type: cell-based, mouse; details: Mus musculus, Hepa-1c1c7, NQO1 activity with 400 nM test compound as a ratio from the base without compound, about 48 hr
Outline: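 Mouse Hepa1c1c7 hepatoma cells treated 48 hr with 400 nM compound (final). NQO1 activity in lysates read by absorbance at 610 nm; value is background-subtracted activity ratio versus untreated cells.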

Chain of binding between Nrf2 and Keap1 (Q14145 325-624 limits assumed): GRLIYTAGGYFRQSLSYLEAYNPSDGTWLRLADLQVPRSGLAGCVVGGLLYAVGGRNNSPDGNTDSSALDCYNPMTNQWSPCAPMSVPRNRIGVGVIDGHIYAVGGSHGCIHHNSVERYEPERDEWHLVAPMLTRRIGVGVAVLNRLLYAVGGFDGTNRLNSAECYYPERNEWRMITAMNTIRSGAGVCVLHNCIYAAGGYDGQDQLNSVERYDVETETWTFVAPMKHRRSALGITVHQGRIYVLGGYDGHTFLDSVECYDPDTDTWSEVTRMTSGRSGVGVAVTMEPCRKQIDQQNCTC

For `CC[C@@H]1CN(Cc2cc(C(CC(=O)O)c3cc(Cl)c4c(nnn4C)c3C)cc3c2CCC3)[C@@H](C)c2ncccc2O1` (single isomer, unassigned) [Example 71, (3R*)-3-(7-Chloro-1,4-dimethyl-1H-benzotriazol-5-yl)-3-(7-{[(2R,5S)-2-ethyl-5-methyl-2,3-dihydropyrido[2,3-f][1,4]oxazepin-4(5H)-yl]methyl}-2,3-dihydro-1H-inden-5-yl)propanoic acid], the IC50 [1] was ≤ 10 nM and the fold induction at 0.4 µM [2] was > 5.
For `CC[C@@H]1CN(Cc2cc(C(CC(=O)O)c3ccc4c(nnn4C)c3C)cc3c2CCC3)S(=O)(=O)c2ccc3ccccc3c2O1` (stereo partly drawn) [Example 26, 3-(1,4-Dimethyl-1H-benzotriazol-5-yl)-3-(7-{[(2R)-2-ethyl-5,5-dioxido-2,3-dihydro-4H-naphtho[1,2-b][1,4,5]oxathiazepin-4-yl]methyl}-2,3-dihydro-1H-inden-5-yl)propanoic acid], the IC50 [1] was 30 to 100 nM and the fold induction at 0.4 µM [2] was > 5.
For `Cc1c(C(CC(=O)O)c2cc(CN3C[C@@H](C)Oc4ccccc4S3(=O)=O)c3cc[nH]c3c2)ccc2c1nnn2C` (stereo partly drawn) [Example 90, 3-(1,4-Dimethyl-1H-benzotriazol-5-yl)-3-(4-{[(4R)-4-methyl-1,1-dioxido-3,4-dihydro-2H-5,1,2-benzoxathiazepin-2-yl]methyl}-1H-indol-6-yl)propanoic acid], the IC50 [1] was 10 to 30 nM and the fold induction at 0.4 µM [2] was > 5.
`CC[C@@H]1CN(Cc2cc([C@H](CC(=O)O)c3cc(C4CC4)c4c(nnn4C)c3C)cc3ccsc23)S(=O)(=O)c2cc(Cl)cnc2O1` [Example 41, (3S)-3-(7-{[(4R)-8-Chloro-4-ethyl-1,1-dioxido-3,4-dihydro-2H-pyrido[2,3-b][1,4,5]oxathiazepin-2-yl]methyl}-1-benzothiophen-5-yl)-3-(7-cyclopropyl-1,4-dimethyl-1H-benzotriazol-5-yl)propanoic acid] was tested, and the IC50 [1] was ≤ 10 nM and the fold induction at 0.4 µM [2] was > 5.
For `CC[C@@H]1CN(Cc2cc(C(CC(=O)O)c3ccc4c(nnn4C)c3C)cc3ccsc23)S(=O)(=O)c2cc(Cl)cnc2O1` (stereo partly drawn) [Example 1, 3-(7-{[(4R)-8-Chloro-4-ethyl-1,1-dioxido-3,4-dihydro-2H-pyrido[2,3-b][1,4,5]oxathiazepin-2-yl]methyl}-1-benzothiophen-5-yl)-3-(1,4-dimethyl-1H-benzotriazol-5-yl)propanoic acid], the IC50 [1] was 30 to 100 nM and the fold induction at 0.4 µM [2] was > 5.
For `CC[C@@H]1CN(Cc2cc([C@H](CC(=O)O)c3ccc4c(nnn4C)c3Cl)cc3ccsc23)[C@@H](C)c2ncccc2O1` [Example 74, (3S)-3-(4-Chloro-1-methyl-1H-benzotriazol-5-yl)-3-(7-{[(2R,5S)-2-ethyl-5-methyl-2,3-dihydropyrido[2,3-f][1,4]oxazepin-4(5H)-yl]methyl}-1-benzothiophen-5-yl)propanoic acid], the IC50 [1] was ≤ 10 nM and the fold induction at 0.4 µM [2] was > 5.
`CC[C@@H]1CN(Cc2cc([C@H](CC(=O)O)c3cc(OC(F)F)c4c(nnn4C)c3C)cc3c2CCC3)S(=O)(=O)c2cc(Cl)cnc2O1` [Example 99, (3S)-3-(7-{[(4R)-8-Chloro-4-ethyl-1,1-dioxido-3,4-dihydro-2H-pyrido[2,3-b][1,4,5]oxathiazepin-2-yl]methyl}-2,3-dihydro-1H-inden-5-yl)-3-[7-(difluoromethoxy)-1,4-dimethyl-1H-benzotriazol-5-yl]propanoic acid] was tested, and the IC50 [1] was ≤ 10 nM and the fold induction at 0.4 µM [2] was > 5.
In the case of `CC[C@@H]1CN(Cc2cc([C@@H](CC(=O)O)c3cc(OC(F)F)c4c(nnn4C)c3C)cc3ccsc23)S(=O)(=O)c2cc(Cl)cnc2O1` [Example 32, (3R)-3-(7-{[(4R)-8-Chloro-4-ethyl-1,1-dioxido-3,4-dihydro-2H-pyrido[2,3-b][1,4,5]oxathiazepin-2-yl]methyl}-1-benzothiophen-5-yl)-3-[7-(difluoromethoxy)-1,4-dimethyl-1H-benzotriazol-5-yl]propanoic acid], the IC50 [1] is reported as ≤ 10 nM and the fold induction at 0.4 µM [2] is reported as > 5.
With `CC[C@@H]1CN(Cc2cc(C(CC(=O)O)c3ccc4c(nnn4CC(F)(F)F)c3C)cc3ccsc23)S(=O)(=O)c2cc(Cl)cnc2O1` (stereo partly drawn) [Example 60, 3-(7-{[(4R)-8-Chloro-4-ethyl-1,1-dioxido-3,4-dihydro-2H-pyrido[2,3-b][1,4,5]oxathiazepin-2-yl]methyl}-1-benzothiophen-5-yl)-3-[4-methyl-1-(2,2,2-trifluoroethyl)-1H-benzotriazol-5-yl]propanoic acid] the IC50 [1] was 10 to 30 nM and the fold induction at 0.4 µM [2] was > 5.
In the case of `CC[C@@H]1CN(Cc2cc([C@@H](CC(=O)O)c3ccc4c(nnn4C)c3C)cc3c2CCC3)S(=O)(=O)c2cccc(Cl)c2O1` [Example 48, (3R)-3-(7-{[(4R)-6-Chloro-4-ethyl-1,1-dioxido-3,4-dihydro-2H-5,1,2-benzoxathiazepin-2-yl]methyl}-2,3-dihydro-1H-inden-5-yl)-3-(1,4-dimethyl-1H-benzotriazol-5-yl)propanoic acid], the IC50 [1] is reported as ≤ 10 nM and the fold induction at 0.4 µM [2] is reported as > 5.
`CC[C@@H]1Cc2ccccc2S(=O)(=O)N(Cc2cc([C@@H](CC(=O)O)c3ccc4c(nnn4C)c3C)cc3c2CCC3)C1` (single isomer, unassigned) [Example 28, (3R)-3-(1,4-Dimethyl-1H-benzotriazol-5-yl)-3-(7-{[(4S*)-4-ethyl-1,1-dioxido-4,5-dihydro-1,2-benzothiazepin-2(3H)-yl]methyl}-2,3-dihydro-1H-inden-5-yl)propanoic acid] was tested, and the IC50 [1] was ≤ 10 nM and the fold induction at 0.4 µM [2] was > 5.
Work on `CC[C@@H]1CN(Cc2cc(C(CC(=O)O)c3cc(Cl)c4c(nnn4C)c3C)cc3ccsc23)S(=O)(=O)c2cc(Cl)cnc2O1` (stereo partly drawn) [Example 51, 3-(7-Chloro-1,4-dimethyl-1H-benzotriazol-5-yl)-3-(7-{[(4R)-8-chloro-4-ethyl-1,1-dioxido-3,4-dihydro-2H-pyrido[2,3-b][1,4,5]oxathiazepin-2-yl]methyl}-1-benzothiophen-5-yl)propanoic acid] yielded an IC50 [1] of 10 to 30 nM and a fold induction at 0.4 µM [2] of 3 to 5.
`CC[C@@H]1CN(Cc2cc(C(CC(=O)O)c3ccc4c(nnn4C)c3C)cc3c2CCC3)S(=O)(=O)c2cc(Cl)c(F)cc2O1` (stereo partly drawn) [Example 13, 3-(7-{[(4R)-8-Chloro-4-ethyl-7-fluoro-1,1-dioxido-3,4-dihydro-2H-5,1,2-benzoxathiazepin-2-yl]methyl}-2,3-dihydro-1H-inden-5-yl)-3-(1,4-dimethyl-1H-benzotriazol-5-yl)propanoic acid] was tested, and the IC50 [1] was ≤ 10 nM and the fold induction at 0.4 µM [2] was > 5.
For `CC[C@@H]1CN(Cc2cc(C(CC(=O)O)c3cc(OC(F)(F)F)c4c(nnn4C)c3C)cc3ccsc23)S(=O)(=O)c2cc(Cl)cnc2O1` (stereo partly drawn) [Example 54, 3-(7-{[(4R)-8-Chloro-4-ethyl-1,1-dioxido-3,4-dihydro-2H-pyrido[2,3-b][1,4,5]oxathiazepin-2-yl]methyl}-1-benzothiophen-5-yl)-3-[1,4-dimethyl-7-(trifluoromethoxy)-1H-benzotriazol-5-yl]propanoic acid], the IC50 [1] was 10 to 30 nM and the fold induction at 0.4 µM [2] was > 5.
With `CC[C@@H]1CN(Cc2cc(C(CC(=O)O)c3cc(OC(F)F)c4c(nnn4C)c3C)cc3ccsc23)S(=O)(=O)c2cc(Cl)cnc2O1` (stereo partly drawn) [Example 55, 3-(7-{[(4R)-8-Chloro-4-ethyl-1,1-dioxido-3,4-dihydro-2H-pyrido[2,3-b][1,4,5]oxathiazepin-2-yl]methyl}-1-benzothiophen-5-yl)-3-[7-(difluoromethoxy)-1,4-dimethyl-1H-benzotriazol-5-yl]propanoic acid] the IC50 [1] was 10 to 30 nM and the fold induction at 0.4 µM [2] was > 5.

From patent US20250092064A1, “BENZOTRIAZOLE COMPOUND” (DAIICHI SANKYO COMPANY, LIMITED, priority 2022, published 2025)
